Results taken from patent publication US10800772B2 (Gilead Sciences, Inc., priority 2016, dated 2020).

What was measured:
Assay type in all cases: cell-based, HIV-1
HIV-IIIb (wildtype) = assay: Antiviral assay in MT4 cells, HIV-IIIb wildtype; details: Human immunodeficiency virus 1, IIIB, MT4, 120 h, read-out: WT EC50
Method: (§1) Antiviral Assay in MT4 Cells
(§2) For the antiviral assay, 0.4 μL of 189X test concentration of 3-fold serially diluted compound in DMSO was added to 40 μL of cell growth medium (RPMI 1640, 10% FBS, 1% Penicillin-Streptomycin, 1% L-Glutamine, 1% HEPES) in each well of 384-well plate (10 concentrations) in quadruplicate.
(§3) 1 mL Aliquots of MT4 cells were pre-infected for 3 hours at 37° C. with 25 μL of cell growth medium (mock-infected) or a fresh 1:250 dilution of an HIV-IIIb (wildtype, IN T174I BT, or IN T174I DE) concentrated ABI stock (0.004 m.o.i.). IN T174I BT virus was derived from viral breakthrough (BT) assay as described in Mulato, A.; Hansen, D.; Thielen, A.; Porter, D.; Stepan, G.; White, K.; Daeumer, M.; Cihlar, T.; Yant, S. R. AIDS Research and Human Retrovirues, July 2016, ahead of print. doi:10.1089/aid.2016.0071. IN T174I DE virus was derived from serial passaging with dose escalation (DE) of test compound. Infected and uninfected cells were diluted in cell growth media and 35 μL (2000 cells) was added to each well of the assay plates.
(§4) Assay plates were then maintained in a humidified, 5% CO2 incubator at 37° C. After 5 days of incubation, 25 μl of 2× concentrated CellTiter-Glo™ Reagent (catalog # G7573, Promega Biosciences, Inc., Madison, Wis.) was added to each well of the assay plate. Cell lysis was carried out by incubating at room temperature for 10 minutes and then chemiluminescence was read using an Envision plate reader (PerkinElmer). EC50 values were calculated as the compound concentration that caused a 50% […] in luminescence signal, a measure of HIV-1 replication.

HIV-IIIb IN T174I BT = assay: Antiviral assay in MT4 cells, HIV-IIIb IN T174I BT virus (from viral breakthrough); details: Human immunodeficiency virus 1, IIIB, MT4, 120 h, read-out: T174I BT EC50, MT4 cells, HIV-IIIb IN T174I BT (viral breakthrough), 5 days, CellTiter-Glo
Method: as §1, §2, §3, §4

HIV-IIIb IN T174I DE = assay: Antiviral assay in MT4 cells, HIV-IIIb IN T174I DE virus (from dose escalation passaging); details: Human immunodeficiency virus 1, IIIB, MT4, 120 h, read-out: T174I DE EC50, MT4 cells, HIV-IIIb IN T174I DE (dose escalation), 5 days, CellTiter-Glo
Method: as §1, §2, §3, §4

Compound | EC50 (HIV-IIIb (wildtype)) [µM] | EC50 (HIV-IIIb IN T174I BT) [µM] | EC50 (HIV-IIIb IN T174I DE) [µM]
CCn1nc(C2CCN(C3CN(C(=O)OC)C3)CC2)c2nc(-c3nc4cc(C)c([C@H](OC(C)(C)C)C(=O)O)c(-c5ccc(Cl)cc5)c4s3)ccc21 [Compound 179, (S)-2-(tert-butoxy)-2-(7-(4-chloro-phenyl)-2-(1-ethyl-3-(1-(1-(methoxy-carbonyl)azetidin-3-yl)piperidin-4-yl)-1H-pyrazolo [4,3-b]pyridin-5-yl)-5-methylbenzo [d]thiazol-6-yl) acetic acid] | 0.003 | 0.028 | 0.108
Cc1cc2nc(-c3ccn4ncc(C5CCN(C6COC6)CC5)c4n3)sc2c(-c2ccc(Cl)cc2)c1[C@H](OC(C)(C)C)C(=O)O [Compound 109, (S)-2-(tert-butoxy)-2-(7-(4-chlorophenyl)-5-methyl-2-(3-(1-(oxetan-3-yl)piperidin-4-yl)pyrazolo[1,5-a]pyrimidin-5-yl)benzo[d]thiazol-6-yl)acetic acid] | 0.003 | 0.205 | 0.614
Cc1cc2nc(-c3ccc4c(c3)c(N3CCN(C5COC5)CC3)nn4C)sc2c(-c2ccc(Cl)cc2)c1[C@H](OC(C)(C)C)C(=O)O [Compound 104, (S)-2-(tert-butoxy)-2-(7-(4-chlorophenyl)-5-methyl-2-(1-methyl-3-(4-(oxetan-3-yl)piperazin-1-yl)-1H-indazol-5-yl)benzo[d]thiazol-6-yl)acetic acid] | 0.011 | 0.491 | 0.904
Cc1cc2nc(-c3cnc4c(c3)c(C3CCN(C5COC5)CC3)nn4C)sc2c(-c2ccc(Cl)cc2)c1[C@H](OC(C)(C)C)C(=O)O [Compound 113, (S)-2-(tert-butoxy)-2-(7-(4-chlorophenyl)-5-methyl-2-(1-methyl-3-(1-(oxetan-3-yl)piperidin-4-yl)-1H-pyrazolo[3,4-b]pyridin-5-yl)benzo[d]thiazol-6-yl)acetic acid] | 0.005 | 0.871 | 1.52
Cc1cc2nc(-c3cnc4c(c3)c(C3=CCN(C)CC3)cn4C)sc2c(-c2ccc(Cl)cc2)c1[C@H](OC(C)(C)C)C(=O)O [Compound 105, (S)-2-(tert-butoxy)-2-(7-(4-chlorophenyl)-5-methyl-2-(1-methyl-3-(1-methyl-1,2,3,6-tetrahydropyridin-4-yl)-1H-pyrrolo[2,3-b]pyridin-5-yl)benzo[d]thiazol-6-yl)acetic acid] | 0.035 | 1.46 | 2.29
Cc1cc2nc(-c3ccc4c(c3)c(N3CCOCC3)nn4C)sc2c(-c2ccc(Cl)cc2)c1[C@H](OC(C)(C)C)C(=O)O [Compound 144, (S)-2-(tert-butoxy)-2-(7-(4-chloro-phenyl)-5-methyl-2-(1-methyl-3-morpholino-1H-indazol-5-yl)benzo[d]thiazol-6-yl)acetic acid] | 0.01 | 1.81 | 3.27
Cc1cc2nc(-c3ccc4c(c3)c(N3CCN(CCN5CCOCC5)C3=O)nn4C)sc2c(-c2ccc(Cl)cc2)c1[C@H](OC(C)(C)C)C(=O)O [Compound 83, (S)-2-(tert-butoxy)-2-(7-(4-chlorophenyl)-5-methyl-2-(1-methyl-3-(3-(2-morpholinoethyl)-2-oxoimidazolidin-1-yl)-1H-indazol-5-yl)benzo[d]thiazol-6-yl)acetic acid] | 0.017 | 2.23 | 2.81
[2H]C([2H])([2H])n1nc(C2CCN(C3CN(C(C)=O)C3)CC2)c2nc(-c3nc4cc(C)c([C@H](OC(C)(C)C)C(=O)O)c(-c5ccc(Cl)cc5)c4s3)ccc21 [Compound 192, (S)-2-(2-(3-(1-(1-acetylazetidin-3-yl)piperidin-4-yl)-1-(methyl-d3)-1H-pyrazolo [4,3-b]pyridin-5-yl)-7-(4-chloro-phenyl)-5-methylbenzo[d]thiazol-6-yl)-2-(tert-butoxy) acetic acid] | 0.001 | 0.028 | 0.055
Cc1cc2nc(-c3ccc4c(c3)c(C3CCN(C5CCC5)C3)nn4C)sc2c(-c2ccc(Cl)cc2)c1[C@H](OC(C)(C)C)C(=O)O (stereo partly drawn) [Compound 71, (2S)-2-(tert-butoxy)-2-(7-(4-chlorophenyl)-2-(3-(1-cyclobutylpyrrolidine-3-yl)-1-methyl-1H-indazol-5-yl)-5-methylbenzo[d]thiazol-6-yl)acetic acid] | 0.005 | 2.47 | 2.24
Cc1cc2nc(-c3ccc4c(n3)c(C3CCN([C@@H]5CCN(C)C5)CC3)nn4C)sc2c(-c2ccc(Cl)cc2)c1[C@H](OC(C)(C)C)C(=O)O [Compound 171, (S)-2-(tert-butoxy)-2-(7-(4-chloro-phenyl)-5-methyl-2-(1-methyl-3-(1-((R)-1-methyl-pyrrolidin-3-yl)piperidin-4-yl)-1H-pyrazolo[4,3-b]pyridin-5-yl)benzo[d]thiazol-6-yl)acetic acid] | 0.005 | 0.098 | 0.239
CC(=O)N1CC(N2CCC(c3nn(C)c4ncc(-c5nc6cc(C)c([C@H](OC(C)(C)C)C(=O)O)c(-c7ccc(Cl)cc7)c6s5)nc34)CC2)C1 [Compound 120, (S)-2-(2-(3-(1-(1-acetylazetidin-3-yl)piperidin-4-yl)-1-methyl-1H-pyrazolo[3,4-b]pyrazin-5-yl)-7-(4-chlorophenyl)-5-methylbenzo[d]thiazol-6-yl)-2-(tert-butoxy)acetic acid] | 0.003 | 0.185 | 0.217
COC(=O)N1CCC(c2nn(C)c3ccc(-c4nc5cc(C)c([C@H](OC(C)(C)C)C(=O)O)c(-c6ccc(Cl)cc6)c5s4)cc23)C1 (stereo partly drawn) [Compound 72, (2S)-2-(tert-butoxy)-2-(7-(4-chlorophenyl)-2-(3-(1-(methoxycarbonyl)pyrrolidin-3-yl)-1-methyl-1H-indazol-5-yl)-5-methylbenzo[d]thiazol-6-yl)acetic acid] | 0.007 | 0.553 | 1.03
Cc1cc2nc(-c3ccc4c(c3)c(N3CCN(C5(C)COC5)CC3)nn4C)sc2c(-c2ccc(Cl)cc2)c1[C@H](OC(C)(C)C)C(=O)O [Compound 207, (S)-2-(tert-butoxy)-2-(7-(4-chloro-phenyl)-5-methyl-2-(1-methyl-3-(4-(3-methyloxetan-3-yl)piperazin-1-yl)-1H-indazol-5-yl)benzo[d]thiazol-6-yl)acetic acid] | 0.004 | 0.38 | 0.693
Cc1cc2nc(-c3ccc4c(c3)c(N3CCN5CCOC[C@@H]5C3)nn4C)sc2c(-c2ccc(Cl)cc2)c1[C@H](OC(C)(C)C)C(=O)O [Compound 4, (S)-2-(tert-butoxy)-2-(7-(4-chlorophenyl)-2-(3-((S)-hexahydropyrazino[2,1-c][1,4]oxazin-8(1H)-yl)-1-methyl-1H-indazol-5-yl)-5-methylbenzo[d]thiazol-6-yl)acetic Acid] | 0.01 | 1.27 | 1.74
COC(=O)N1CC(N2CCC(c3nn(C)c4ccc(-c5nc6cc(C)c([C@H](OC(C)(C)C)C(=O)O)c(-c7ccc(Cl)cc7)c6s5)cc34)CC2)C1 [Compound 153, (S)-2-(tert-butoxy)-2-(7-(4-chloro-phenyl)-2-(3-(1-(1-(methoxycarbonyl)azetidin-3-yl)piperidin-4-yl)-1-methyl-1H-indazol-5-yl)-5-methyl-benzo[d]thiazol-6-yl)acetic acid] | 0.011 | 0.159 | 0.217
Cc1cc2nc(-c3ccc4c(c3)c(N3CCNC3=O)nn4C)sc2c(-c2ccc(Cl)cc2)c1[C@H](OC(C)(C)C)C(=O)O [Compound 78, (S)-2-(tert-butoxy)-2-(7-(4-chlorophenyl)-5-methyl-2-(1-methyl-3-(2-oxoimidazolidin-1-yl)-1H-indazol-5-yl)benzo[d]thiazol-6-yl)acetic acid] | 0.032 | 2.69 | 3.19
Cc1cc2nc(-c3ccc4c(n3)c(N3CCN(C)CC3)nn4C)sc2c(-c2ccc(Cl)cc2)c1[C@H](OC(C)(C)C)C(=O)O [Compound 196, (S)-2-(tert-butoxy)-2-(7-(4-chloro-phenyl)-5-methyl-2-(1-methyl-3-(4-methylpiperazin-1-yl)-1H-pyrazolo [4,3-b]pyridin-5-yl)benzo[d]thiazol-6-yl)acetic acid] | 0.004 |  | 
Cc1cc2nc(-c3ccc4c(c3)c(N3CCN(C)CC3=O)nn4C)sc2c(-c2ccc(Cl)cc2)c1[C@H](OC(C)(C)C)C(=O)O [Compound 87, (S)-2-(tert-butoxy)-2-(7-(4-chlorophenyl)-5-methyl-2-(1-methyl-3-(4-methyl-2-oxopiperazin-1-yl)-1H-indazol-5-yl)benzo[d]thiazol-6-yl)acetic acid] | 0.013 |  | 
